This is an account of results in patent US9034336B2, “Immunomodulators and immunomodulator conjugates” (Regents of the University of Minnesota, priority 2011, dated 2015).

One test has as its target T1, human TLR7 (Homo sapiens, UniProt Q9NYK1).
T1 construct: host or cells: HEK (HEK293) cells with NF-kB-responsive SEAP reporter
T1 sequence (Q9NYK1 27-1049): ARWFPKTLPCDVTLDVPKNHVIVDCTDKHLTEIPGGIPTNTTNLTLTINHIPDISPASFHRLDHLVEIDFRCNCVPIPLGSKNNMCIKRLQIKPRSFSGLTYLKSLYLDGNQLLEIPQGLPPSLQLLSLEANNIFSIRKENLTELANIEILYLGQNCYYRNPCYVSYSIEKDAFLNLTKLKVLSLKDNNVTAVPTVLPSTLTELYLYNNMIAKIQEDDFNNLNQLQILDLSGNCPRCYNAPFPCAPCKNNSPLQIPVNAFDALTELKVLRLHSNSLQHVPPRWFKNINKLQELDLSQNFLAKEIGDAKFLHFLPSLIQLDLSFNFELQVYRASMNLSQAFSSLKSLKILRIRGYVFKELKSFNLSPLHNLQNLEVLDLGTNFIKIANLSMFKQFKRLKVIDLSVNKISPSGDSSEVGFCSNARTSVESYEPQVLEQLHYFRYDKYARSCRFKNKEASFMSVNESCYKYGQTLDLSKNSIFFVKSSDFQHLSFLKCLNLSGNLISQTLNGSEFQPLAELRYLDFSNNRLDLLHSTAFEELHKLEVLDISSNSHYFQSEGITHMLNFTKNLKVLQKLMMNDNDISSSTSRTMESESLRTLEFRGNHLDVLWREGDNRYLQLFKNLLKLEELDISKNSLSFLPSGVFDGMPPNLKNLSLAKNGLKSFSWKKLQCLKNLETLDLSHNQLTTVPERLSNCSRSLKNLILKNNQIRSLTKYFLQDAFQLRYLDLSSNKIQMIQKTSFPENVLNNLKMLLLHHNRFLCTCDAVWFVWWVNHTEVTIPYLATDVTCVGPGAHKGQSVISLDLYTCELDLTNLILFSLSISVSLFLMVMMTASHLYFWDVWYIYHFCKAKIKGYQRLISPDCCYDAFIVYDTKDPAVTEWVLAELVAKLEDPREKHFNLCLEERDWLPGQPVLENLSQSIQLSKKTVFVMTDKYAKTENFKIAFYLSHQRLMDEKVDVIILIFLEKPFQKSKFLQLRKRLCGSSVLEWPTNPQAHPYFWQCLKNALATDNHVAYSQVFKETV
The test can be described thus: TLR7/8-NF-κB reporter assay (HEK-TLR7, SEAP). In kind it is cell-based. The conditions noted are these: HEK-TLR7 cells, 24 hrs; for EC50: read-out: EC50 of TLR7 (mean ± SD). How it is done: (§1) Human embryonic kidney (HEK) cells that were stably transfected with human TLR7 or TLR8 and an NF-κB—responsive secreted embryonic alkaline phosphatase (SEAP) gene (HEK-TLR7/8) were purchased from InvivoGen (San Diego, Calif.). The procedure used to measure TLR7 or TLR8 agonist activity was conducted as described by Hood et al. (Hood J. D, et al., Human Vaccines, 2010, 6, 4, 322-335). Briefly, HEK-TLR7/8 cells were stimulated with 3.3 or 30 μM of compound in a 96-well plate in DMEM containing 10% FBS and 0.01% Normocin (InvivoGen) for 24 hrs. Twenty microliters of the supernatant from each well was incubated with Quanti-blue substrate solution (InvivoGen) at 37° C. for 1 hour and absorbance was read at 650 nm using a Synergy plate reader (Biotek, Winooski, Vt.).

Another test deals with T2, human TLR8 (Homo sapiens, UniProt Q9NR97).
T2 construct: host or cells: HEK (HEK293) cells with NF-kB-responsive SEAP reporter
T2 sequence (Q9NR97 27-1041): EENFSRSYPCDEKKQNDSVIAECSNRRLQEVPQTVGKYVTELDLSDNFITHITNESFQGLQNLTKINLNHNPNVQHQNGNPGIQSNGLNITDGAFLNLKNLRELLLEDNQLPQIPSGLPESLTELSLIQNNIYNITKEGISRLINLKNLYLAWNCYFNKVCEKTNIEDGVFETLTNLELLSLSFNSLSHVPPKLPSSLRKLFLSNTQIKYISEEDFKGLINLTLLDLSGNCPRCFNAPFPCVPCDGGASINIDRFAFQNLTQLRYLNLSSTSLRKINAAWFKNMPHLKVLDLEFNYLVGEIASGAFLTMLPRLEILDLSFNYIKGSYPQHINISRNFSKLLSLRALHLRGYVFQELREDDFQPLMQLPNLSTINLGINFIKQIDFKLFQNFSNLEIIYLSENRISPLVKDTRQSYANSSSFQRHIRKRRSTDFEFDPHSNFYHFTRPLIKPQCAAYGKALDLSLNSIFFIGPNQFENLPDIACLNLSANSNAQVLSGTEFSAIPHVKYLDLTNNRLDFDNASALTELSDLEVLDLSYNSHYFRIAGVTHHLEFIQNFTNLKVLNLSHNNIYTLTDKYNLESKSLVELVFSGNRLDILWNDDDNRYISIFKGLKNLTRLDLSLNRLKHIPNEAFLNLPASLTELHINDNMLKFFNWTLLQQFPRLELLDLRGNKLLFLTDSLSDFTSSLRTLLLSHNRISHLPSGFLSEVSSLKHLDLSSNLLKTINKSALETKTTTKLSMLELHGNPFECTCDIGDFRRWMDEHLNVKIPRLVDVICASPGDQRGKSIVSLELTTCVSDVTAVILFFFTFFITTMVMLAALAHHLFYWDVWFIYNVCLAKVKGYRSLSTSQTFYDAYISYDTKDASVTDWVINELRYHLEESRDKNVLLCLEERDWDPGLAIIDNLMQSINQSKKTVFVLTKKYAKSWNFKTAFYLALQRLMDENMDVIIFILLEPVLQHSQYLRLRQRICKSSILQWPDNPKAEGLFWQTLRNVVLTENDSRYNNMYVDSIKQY
Kind of test: TLR7/8-NF-κB reporter assay (HEK-TLR8, SEAP). In kind it is cell-based. The conditions noted are these: HEK-TLR8 cells, 24 hrs, read-out: EC50 of TLR8 (mean ± SD). How it is done: as §1

As to `CCc1nc2c(N)nc3cc(C(=O)OC)ccc3c2n1CC(C)(C)O` [Compound 517, 4-amino-2-ethyl-1-(2-hydroxy-2-methylpropyl)-7-methoxycarbonyl-1H-imidazo[4,5-c]quinoline], the concentration giving a half-maximal response (EC50) at human TLR7 was 29.1 ± 4.33 µM.
Still for that read-out and setting: the result for `CCCc1nc2c(N)nc3cc(C(=O)OC)ccc3c2n1CC(C)(C)O` [Compound 518, 4-amino-1-(2-hydroxy-2-methylpropyl)-7-methoxycarbonyl-2-propyl-1H-imidazo[4,5-c]quinoline] reads 23.8 ± 4.34 µM.
As to `COCCc1nc2c(N)nc3cc(C(=O)OC)ccc3c2n1CC(C)O` (centres unmarked) [Compound 536, 4-Amino-1-(2-hydroxypropyl)-2-(2-methoxyethyl)-7-carboxylate-1H-imidazo[4,5-c]quinoline], the EC50 came out at 31.7 ± 1.54 µM on human TLR8 and 20.2 ± 4.11 µM on human TLR7.
The like results for `CCCCc1nc2c(N)nc3cc(C(=O)OC(C)C)ccc3c2n1CC(C)(C)O` [Compound 526] were, in that order, 17.2 ± 5.33 µM and 3.94 ± 0.25 µM.
For `COC(=O)c1ccc2c(c1)nc(N)c1ncn(CC(C)(C)O)c12` [Compound 421, 4-amino-1-(2-hydroxy-2-methylpropyl)-7-methoxycarbonyl-1H-imidazo[4,5-c]quinoline], the “EC50 of TLR7 (mean ± SD)” value at human TLR7 is reported as “NO EC50”.
`COC(=O)c1ccc2nc(N)c3ncn(CC(C)C)c3c2c1` [Compound 504, 4-amino-1-isobutyl-8-methoxycarbonyl-1H-imidazo[4,5-c]quinoline]: the figures for the EC50 at human TLR8 and at human TLR7 were 21.2 ± 19.9 µM and 21.2 ± 5.22 µM, respectively.
The like results for `CCCCc1nc2c(N)nc3cc(C(=O)OC)ccc3c2n1CCOCc1ccccc1` [Compound 520, 4-Amino-1-(2-(benzyloxy)ethyl)-2-butyl-7-methoxycarbonyl 1H-imidazo[4,5-c]quinoline] were, in that order, 31 ± 10.6 µM and 2.42 ± 0.19 µM.
The like results for `CCCCc1nc2c(N)nc3cc(C(=O)OC)ccc3c2n1CCO` [Compound 529, 4-Amino-2-butyl-1-(2-hydroxyethyl)-7-methoxycarbonyl-1H-imidazo[4,5-c]quinoline] were, in that order, 4.41 ± 0.49 µM and 22.9 ± 5.28 µM.
Take `CCCCc1nc2c(N)nc3cc(C(=O)OC(C)C)ccc3c2n1CC(C)O` (centres unmarked) [Compound 530, 4-Amino-2-butyl-1-(2-hydroxypropyl)-7-isopropoxycarbonyl-1H-imidazo[4,5-c]quinoline]: the values for the EC50 on human TLR8 and at human TLR7 were 5.82 ± 0.2 µM and 2.5 ± 0.15 µM, respectively.
For the compound `CCCCc1nc2c(N)nc3cc(C(=O)OC)ccc3c2n1CCOC` [Compound 521, 4-Amino-2-butyl-1-(2-methoxyethyl)-7-methoxycarbonyl-1H-imidazo[4,5-c]quinolone], on human TLR7, the EC50 stood at 5.67 ± 0.81 µM.
On the same count and under the same terms, with `COC(=O)c1ccc2c(c1)nc(N)c1nc(C)n(CC(C)(C)O)c12` [Compound 516, 4-amino-1-(2-hydroxy-2-methylpropyl)-7-methoxycarbonyl-2-methyl-1H-imidazo[4,5-c]quinoline] the figure was 49.2 ± 17.3 µM.
In the case of `CCOC(=O)c1ccc2c(c1)nc(N)c1ncn(CC(C)C)c12` [Compound 511, 4-Amino-7-ethoxycarbonyl-1-(2-methylpropyl)-1H-imidazo[4,5-c]quinoline], on human TLR7, the EC50 came to 7.92 ± 1.49 µM.
Consider `CCCCc1nc2c(N)nc3cc(C(=O)OCC)ccc3c2n1CC(C)(C)O` [Compound 525, 4-Amino-2-butyl-1-(2-hydroxyl-2-methylprop-yl)-7-ethoxycarbonyl-1H-imidazo[4,5-c]quinoline], for which the EC50 on human TLR8 was 19.9 ± 1.04 µM; at human TLR7, 2.21 ± 0.44 µM.
Regarding `COC(=O)c1ccc2c(c1)nc(N)c1nc(Cc3ccccc3)n(CC(C)(C)O)c12` [Compound 535, 4-Amino-2-benzyl-1-(2-hydroxyl-2-methylprop-yl)-7-methoxycarbonyl-1H-imidazo[4,5-c]quinoline], on human TLR7, the EC50 is 4.79 ± 0.46 µM.
Consider `COC(=O)c1ccc2c(c1)nc(N)c1ncn(Cc3ccccc3)c12` [Compound 422, 4-amino-1-benzyl--7-methoxycarbonyl-1H-imidazo[4,5-c]quinoline], for which, at human TLR7, the “EC50 of TLR7 (mean ± SD)” value was “NO EC50”.
`CCCCc1nc2c(N)nc3cc(C(=O)OCC)ccc3c2n1CC(C)O` (centres unmarked) [Compound 531, 4-Amino-2-butyl-1-(2-hydroxypropyl)-7-ethoxycarbonyl-1H-imidazo[4,5-c]quinoline]: the values for the half-maximal effective concentration (EC50) on human TLR8 and at human TLR7 were 4.73 ± 0.55 µM and 5.23 ± 0.16 µM, respectively.
As to `CCCCCc1nc2c(N)nc3cc(C(=O)OC)ccc3c2n1CC(C)(C)O` [Compound 527, 4-Amino-1-(2-hydroxyl-2-methylpropyl)-7-methoxy carbonyl-2-pentyl-1H-imidazo[4,5-c]quinoline], the EC50 at human TLR8 was found to be 7.15 ± 0.29 µM; at human TLR7 it was 2.6 ± 0.18 µM.
